Experimental data taken from PubChem BioAssay (NCI).
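48-hour exposure; five concentrations; linearly interpolated endpoints. Definition used: TGI = concentration required for complete inhibition of growth.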

What was measured:
Assay in all cases: inhibition of tumour cell growth, NCI panel, 48 h
[1] = test system: COLO 205 colon
[2] = test system: LXFL 529 NSCLC
[3] = test system: M19-MEL melanoma
[4] = test system: TK-10 renal
[5] = test system: MALME-3M melanoma
[6] = test system: DLD-1 colon
[7] = test system: KM12 colon
[8] = test system: HOP-92 NSCLC
[9] = test system: DMS 273 small cell lung
[10] = test system: 786-0 renal
[11] = test system: RXF 393 renal
[12] = test system: SNB-78 CNS
[13] = test system: KM20L2 colon
[14] = test system: HOP-18 NSCLC
[15] = test system: RPMI-8226 leukemia
[16] = test system: XF 498 CNS
[17] = test system: BT-549 breast

Structure (SMILES) | TGI [1] [µM] | TGI [2] [µM] | TGI [3] [µM] | TGI [4] [µM] | TGI [5] [µM] | TGI [6] [µM] | TGI [7] [µM] | TGI [8] [µM] | TGI [9] [µM] | TGI [10] [µM] | TGI [11] [µM] | TGI [12] [µM] | TGI [13] [µM] | TGI [14] [µM] | TGI [15] [µM] | TGI [16] [µM] | TGI [17] [µM]
CN1C(=O)c2cccc3c([N+](=O)[O-])ccc(c23)C1=O | 19.8 | 3.89 | 24.5 | 15.6 | 31.1 | 12.1 | 18.3 | 19.9 | 15.7 | 21 | 8.61 | 32 | 19.5 | 30.8 | – | – | –
COc1cc([C@@H]2c3cc4c(cc3[C@@H](NC(=O)c3ccc(C(C)=O)cc3)C3COC(=O)[C@@H]32)OCO4)cc(OC)c1O (stereo partly drawn) | 19.5 | > 100 | 25.5 | 21.8 | 3.33 | 17.7 | 5.68 | 27 | 7.62 | 1.81 | 72.1 | 85 | 8.05 | > 100 | 14.5 | 5.7 | –
CC1=CC(=O)c2cccc(O)c2C1=O | 4.36 | 3.06 | 4.05 | 5.05 | 2.98 | – | 25.3 | 3.29 | 5.01 | 3.09 | 3.36 | > 62.4 | 41.6 | 3.07 | > 40.3 | 3.2 | 3.13
COc1ccc(OC)c2c1C(=O)C(Cl)=C(Cl)C2=O | 3.21 | 4.74 | 16.2 | 9.83 | 4.46 | 11.8 | 33.8 | 8.14 | 20.1 | 10.5 | 3.65 | 15.8 | 22.3 | 12.4 | > 27.6 | 3.67 | –
CCN(CC)CCNC(=O)c1ccccc1Nc1c(Cl)cccc1Cl | 26.7 | 30.5 | 30.2 | 24.8 | – | 24.7 | – | – | 30.6 | 19 | 27.9 | 33.1 | 7.27 | – | 30.2 | 16.5 | –
CCCN(CCC)C(=O)Cc1c2n(c3ccccc13)CCCc1ccccc1-2 | 29.1 | 26.6 | 29.5 | 29.5 | 26.8 | 26.5 | 25.2 | 14.7 | 23.2 | 30.6 | 22.4 | 27.6 | 27.9 | 30.3 | 37.6 | 28.8 | –
CCCC/C=C1\CCC(CN2CCOCC2)C1=O (stereo not drawn) | 9.49 | 2.74 | 15.2 | 19.5 | 4.95 | 3.13 | 7.38 | 3.72 | 17.6 | 4.25 | 2.89 | 32.3 | 11.4 | 2.05 | 2.59 | 3.15 | 9.47
COC(=O)c1ccc(NCc2cc(O)c3ccccc3c2O)cc1 | 25.4 | – | – | 39.1 | 5.95 | – | > 50 | 9.97 | – | 46.5 | 48.9 | – | – | – | 15.1 | – | 30.7
O=C1c2ccccc2N2OC3C4CCC(C4)C3C12c1ccccc1 (stereo not drawn) | > 100 | > 100 | > 100 | – | > 100 | > 100 | – | > 100 | > 100 | > 100 | 77.8 | – | > 100 | > 100 | > 100 | – | –
CCCCC/C=C1\CCC(CN2CCOCC2)C1=O (stereo not drawn) | 13.7 | 16.6 | > 54.8 | 18.9 | 18.9 | 19.2 | 10.7 | 29 | – | 7.17 | 12.3 | 47.4 | 19 | 27.5 | 3.02 | 31.8 | 32.3
CCOC(=O)c1c(N2CCOCC2)[nH]c(=O)c(C(c2ccc(N(C)C)cc2)c2c(O)c(C(=O)OCC)c(N3CCOCC3)[nH]c2=O)c1O | > 100 | – | – | > 100 | > 100 | – | > 100 | > 100 | – | > 100 | > 100 | – | – | – | > 100 | – | > 100
COC(=O)c1c(C)cccc1C1CN=NC12Cc1c(C)cccc1C2=O (stereo not drawn) | > 100 | – | – | > 100 | > 100 | – | > 100 | > 100 | – | > 100 | > 100 | – | – | – | > 100 | – | > 100
CN(C)CCCNC(=O)c1cc(NC(=O)CCCn2c3ccccc3c3ccccc32)cn1C | 59.8 | – | – | 82 | 61.7 | – | > 100 | 9.32 | – | > 100 | > 100 | – | – | – | > 100 | – | > 100
O=C(Cc1ccccc1)NN1C(=O)C(Cl)C1c1cc(Br)cc(Br)c1O (stereo not drawn) | 44.8 | 50 | 63.2 | > 100 | 51.9 | > 100 | > 100 | – | 65.2 | 36.7 | 40.4 | 83 | > 100 | 31.4 | 29.1 | 79.3 | –
CSc1ccc2c(cc1=O)C(NC(=O)c1cc(O)c(OC(=O)O)c(O)c1)CCc1cc(O)c(O)c(O)c1-2 (stereo not drawn) | > 90 | 36.9 | 27.4 | > 90 | > 90 | 43.9 | 65.3 | 51.4 | 38.6 | > 90 | > 90 | 81.6 | 83.2 | > 90 | 39.8 | – | –
COc1ccccc1OCc1nnc(SCC(=O)O)n1-c1ccccc1 | > 100 | > 100 | – | > 100 | > 100 | > 100 | > 100 | > 100 | > 100 | > 100 | – | > 100 | > 100 | – | > 100 | > 100 | –

Structure (SMILES) | TGI [1] [µM] | TGI [2] [µM] | TGI [3] [µM] | TGI [4] [µM] | TGI [5] [µM] | TGI [6] [µM] | TGI [7] [µM] | TGI [8] [µM] | TGI [9] [µM] | TGI [10] [µM] | TGI [11] [µM] | TGI [12] [µM] | TGI [13] [µM] | TGI [14] [µM] | TGI [15] [µM] | TGI [16] [µM] | TGI [17] [µM]
O=C(CCNC(=O)OCc1ccccc1)OCCCNC(=O)OCc1ccccc1 | > 100 | – | – | > 100 | > 100 | – | > 100 | > 100 | – | > 100 | > 100 | – | – | – | > 100 | – | > 100
COc1cc(CSc2ccc(O)cc2)cc(O)c1O | 52.6 | – | – | > 100 | > 100 | – | 91.9 | 50.4 | – | > 100 | > 100 | – | – | – | 56.3 | – | 63.6
CCOC(=O)NC(=O)c1cn(-c2ccc(CCOC(=O)CCCCCCCCC(=O)OCCc3ccc(-n4cc(C(=O)NC(=O)OCC)c(=O)[nH]c4=O)cc3)cc2)c(=O)[nH]c1=O | > 100 | > 100 | > 100 | > 100 | > 100 | > 100 | > 100 | 88.7 | – | > 100 | > 100 | > 100 | > 100 | > 100 | > 100 | > 100 | –
CCOC(=O)C1=C(C)N(Cc2ccc(Cl)cc2Cl)C2(O)C(OC)CC(=O)C3C(=O)N(c4ccccc4)C(=O)C132 (stereo not drawn) | 13.4 | – | – | 22.8 | 23.9 | – | 9.03 | 7.95 | – | 4.11 | 3.14 | – | – | – | 8.61 | – | 5.61
CCOP(=O)(C/C(=N/NC(C)(C)C)C(=O)Nc1nc2ccc(C)cc2s1)OCC | > 100 | > 100 | > 100 | > 100 | > 100 | – | > 100 | – | > 100 | > 100 | > 100 | > 100 | > 100 | > 100 | – | > 100 | –
CN(C)CC1CCC(CN(C)C)C1=NO (stereo not drawn) | > 100 | > 100 | > 100 | > 100 | > 100 | > 100 | – | > 100 | > 100 | > 100 | > 100 | > 100 | > 100 | > 100 | > 100 | – | –
CCC(=O)NCC1(c2c[nH]c3ccccc23)SCCS1 | > 100 | > 100 | > 100 | > 100 | > 100 | > 100 | > 100 | > 100 | > 100 | > 100 | – | > 100 | > 100 | > 100 | > 100 | > 100 | –
COc1ccc(C(F)(F)F)cc1NC(=O)O/N=C(/Cl)C(C)C | 4.1 | – | – | 28.4 | 24.7 | – | > 60.2 | 18.9 | – | 31.8 | 36.8 | – | – | – | 6.05 | – | 41.3
CCOc1ccccc1N=NC1C(=O)N(C(=O)CC(=O)Nc2ccccc2Cl)N=C1C (stereo not drawn) | > 100 | – | – | > 100 | > 100 | – | > 100 | 70 | – | > 100 | > 100 | – | – | – | > 100 | – | > 100
Cc1nc(SCC(=O)Nc2ccccc2)c2sc(=S)n(-c3ccccc3)c2n1 | > 10 | – | – | > 10 | > 10 | – | > 10 | > 10 | – | > 10 | > 10 | – | – | – | > 10 | – | > 10
COC(=O)C(=O)C(C(=O)C(=O)Nc1ccc([N+](=O)[O-])cc1C#N)c1nc2ccc([N+](=O)[O-])cc2[nH]c1=O (stereo not drawn) | > 100 | > 100 | > 100 | > 100 | > 100 | > 100 | > 100 | > 100 | > 100 | > 100 | > 100 | > 100 | > 100 | > 100 | > 100 | – | –
C[C@H](C(=O)N1C(=O)O[C@@H](c2ccccc2)[C@H]1C)[C@H](c1ccccc1)N(Cc1ccccc1)OC(=O)c1ccccc1 | > 100 | – | – | > 100 | > 100 | – | > 100 | > 100 | – | > 100 | > 100 | – | – | – | > 100 | – | > 100
COc1cccc(NC(=O)c2c(SC)n[nH]c2N)c1 | > 100 | – | – | > 100 | > 100 | – | > 100 | > 100 | – | > 100 | > 100 | – | – | – | > 100 | – | > 100
CC(=O)C1CC2(c3ccccc3)C(=O)c3ccccc3N2O1 (stereo not drawn) | > 100 | > 100 | > 100 | – | > 100 | > 100 | – | > 100 | > 100 | > 100 | > 100 | > 100 | > 100 | > 100 | > 100 | > 100 | –
CC1(Br)C(=O)NC(=O)N([C@H]2C[C@H](O)[C@@H](CO)O2)C1N=[N+]=[N-] (stereo partly drawn) | > 100 | > 100 | > 100 | > 100 | > 100 | > 100 | > 100 | > 100 | > 100 | > 100 | > 100 | > 100 | > 100 | > 100 | > 100 | > 100 | –
